Where two headings read alike, the source gives them in different places.
Target: T1, hCCR4 (Chem5-hCCR4 cells) (Homo sapiens, UniProt P51679)
T1 sequence (P51679 1-360): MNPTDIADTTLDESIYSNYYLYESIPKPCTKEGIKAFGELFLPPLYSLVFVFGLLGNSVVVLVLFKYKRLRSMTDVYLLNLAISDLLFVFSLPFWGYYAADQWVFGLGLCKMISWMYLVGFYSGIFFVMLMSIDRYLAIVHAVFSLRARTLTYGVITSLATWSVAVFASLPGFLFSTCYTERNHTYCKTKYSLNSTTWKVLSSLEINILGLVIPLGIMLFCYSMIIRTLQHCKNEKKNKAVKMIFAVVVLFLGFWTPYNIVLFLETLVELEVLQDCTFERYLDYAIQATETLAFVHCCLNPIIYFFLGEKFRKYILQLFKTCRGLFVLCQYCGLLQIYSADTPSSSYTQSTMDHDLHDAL
Experiment: Calcium flux assay (CCL22-stimulated, FLIPR Calcium 6 dye)
Format: cell-based
Conditions: read-out: Potency (IC50)
Method: Calcium Flux Assay. Compounds were evaluated in a calcium flux assay substantially performed as follows. Chem5-hCCR4 cells (EMD Millipore, Hayward, CA; HTS009C) were cultured under standard conditions and frozen in aliquots of 10×10^6 cells/mL. The day prior to compound testing, a vial was rapidly thawed and pipetted into 20 mL media (DMEM+10% FBS+1% Pen-Strep+1% L-glutamine). Cells were harvested by centrifugation and re-suspended in fresh culture medium. 25 μL of cell suspension was seeded into 384-well plates (Corning, Tewksbury, MA; CellBind with black wall/clear bottom). The plates were centrifuged at 300 g for 10 seconds and incubated overnight at 37° C. and 5% CO2. The day of compound testing, media was removed from the plates and 25 μL serum free media was added to each well. Plates were returned to the incubator for 2 h. 25 μL assay buffer (Hank's balanced salt solution+20 mM HEPES pH 7.4) containing FLIPR Calcium 6 dye (Molecular Devices, Sunnyvale, CA; #R8191) and probenecid (2.5 mM) was added to each well and incubated at 37° C. and 5% CO2 for 2 h. Compounds in DMSO were added to the plates using an HP D300e digital dispenser, and all wells were normalized to contain 0.25 μL (0.5%) DMSO. Plates were incubated for 1 hour at 37° C. and 5% CO2. CCL22 (Peprotech; Rockyhill, NJ) was diluted in assay buffer containing 0.1% BSA to 7.5 nM (corresponding to 5×EC80 of 1.5 nM).
Assay plates and working solution of CCL22 were transferred to the FlexStation plate reader (Molecular Devices) at 37° C. for 5 min of equilibration. Fluorescence recordings at 485 excitation/525 emission were performed at 2.5 second intervals. At t=16 seconds, 12.5 μL of CCL22 solution was added to each well and reads continued for 30 seconds at 2.5 second intervals. The minimum fluorescence (Fmin) was calculated by averaging the reads prior to ligand addition and the change in fluorescence (ΔF) was calculated by subtracting the Fmin from the average of the reads following ligand addition. The response ΔF/Fmin was plotted as a function of the compound concentration and the IC50 values were determined by non-linear regression analysis using a 4-parameter fit in either PRISM software (GraphPad; La Jolla, CA) or Dotmatics Browser.

IC50 (Table 5, CCL22 1.5 nM) | IC50 (Table 3, CCL22 1.5 nM) | Compound | also measured
< 100 nM |  | Cc1cc2c(N[C@H](C)c3ccc(Cl)cc3Cl)nc(N3CC([C@H]4CCCN(C5CC(C)(C(=O)O)C5)C4)C3)nc2s1 (single isomer, unassigned) [Example 67, trifluoroacetic acid] | 
 | < 100 nM | Cc1cnc(N2CC([C@H]3CCCN(C4CC(CO)C4)C3)C2)nc1N[C@H](C)c1ccc(Cl)cc1Cl (stereo partly drawn) [Example 18, (3-((R)-3-(1-(4-(((R)-1-(2,4-dichlorophenyl)ethyl)amino)-5-methylpyrimidin-2-yl)azetidin-3-yl)piperidin-1-yl)cyclobutyl)methanol] | 
< 100 nM |  | COc1cnc(N2CC([C@H]3CCCN(C4CC(C)(C(=O)O)C4)C3)C2)nc1N[C@H](C)c1ccc(Cl)cc1Cl (single isomer, unassigned) [Example 83] | 
100 to 500 nM |  | C[C@@H](Nc1nc(N2CC([C@H]3CCCN([C@H]4C[C@@H](C(=O)O)C4)C3)C2)ncc1C#N)c1ccc(Cl)cc1Cl [Example 93, 3-[(3R)-3-[1-[5-cyano-4-[[(1R)-1-(2,4-dichlorophenyl)ethyl]amino]pyrimidin-2-yl]azetidin-3-yl]-1-piperidyl]cyclobutanecarboxylic acid] | 
 | < 100 nM | C[C@@H](Nc1nc(N2CC([C@H]3CCCN([C@H]4C[C@](C)(C(=O)O)C4)C3)C2)nc2c1CCC2)c1ccc(Cl)cc1Cl [Example 20, (1R,3r)-3-((R)-3-(1-(4-(((R)-1-(2,4-dichlorophenyl)ethyl)amino)-6,7-dihydro-5H-cyclopenta[d]pyrimidin-2-yl)azetidin-3-yl)piperidin-1-yl)-1-methylcyclobutane-1-carboxylic acid] | 
< 100 nM |  | Cc1csc2nc(N3CC([C@H]4CCCN(C5CC(C)(C(=O)O)C5)C4)C3)nc(N[C@H](C)c3ccc(Cl)cc3Cl)c12 (single isomer, unassigned) [Example 74, trifluoroacetic acid] | 
< 100 nM |  | COC(C)c1cnc(N2CC([C@H]3CCCN([C@H]4C[C@](C)(C(=O)O)C4)C3)C2)nc1N[C@H](C)c1ccc(Cl)cc1Cl (stereo partly drawn) [Example 79, 3-[(3R)-3-[1-[4-[[(1R)-1-(2,4-dichlorophenyl)ethyl]amino]-5-(1-methoxyethyl)pyrimidin-2-yl]azetidin-3-yl]-1-piperidyl]-1-methyl-cyclobutanecarboxylic acid; 2,2,2-trifluoroacetic acid] | 
 | < 100 nM | C[C@@H](Nc1nc(N2CC([C@H]3CCCN([C@H]4C[C@](C)(C(=O)O)C4)C3)C2)ncc1Br)c1ccc(F)cc1Cl [Example 45, (1R,3r)-3-((R)-3-(1-(5-bromo-4-(((R)-1-(2-chloro-4-fluorophenyl)ethyl)amino)pyrimidin-2-yl)azetidin-3-yl)piperidin-1-yl)-1-methylcyclobutane-1-carboxylic acid] | 
 |  | C[C@@H](Nc1cnc(C#N)c(N2CC([C@H]3CCCN(C4CC(C)(C(=O)O)C4)C3)C2)n1)c1ccc(Cl)cc1Cl (single isomer, unassigned) [Example 52] | IC50 (Table 4, CCL22 1.5 nM): > 500 nM
 | < 100 nM | C[C@@H](Nc1nc(N2CC([C@H]3CCCN([C@H]4C[C@](C)(C(=O)O)C4)C3)C2)nc2ccsc12)c1ccc(Cl)cc1Cl [Example 28, (1R,3r)-3-((R)-3-(1-(4-(((R)-1-(2,4-dichlorophenyl)ethyl)amino)thieno[3,2-d]pyrimidin-2-yl)azetidin-3-yl)piperidin-1-yl)-1-methylcyclobutane-1-carboxylic acid] | 
 | < 100 nM | Cc1cnc(N2CC([C@H]3CCCN(CC(C)(C)O)C3)C2)nc1N[C@H](C)c1ccc(Cl)cc1Cl [Example 19, 1-((R)-3-(1-(4-(((R)-1-(2,4-dichlorophenyl)ethyl)amino)-5-methylpyrimidin-2-yl)azetidin-3-yl)piperidin-1-yl)-2-methylpropan-2-ol] | 
 | 100 to 500 nM | C[C@@H](Nc1nc(N2CC([C@H]3CCCN(CCO)C3)C2)ncc1F)c1ccc(Cl)cc1Cl [Example 48, 2-((R)-3-(1-(4-(((R)-1-(2,4-dichlorophenyl)ethyl)amino)-5-fluoropyrimidin-2-yl)azetidin-3-yl)piperidin-1-yl)ethan-1-ol] | 
< 100 nM |  | C[C@@H](Nc1nc(N2CC([C@H]3CCCN(C4CC(C)(C(=O)O)C4)C3)C2)nc(CF)c1Cl)c1ccc(Cl)cc1Cl (single isomer, unassigned) [Example 89] | 
< 100 nM |  | C[C@@H](Nc1cc(C2CC2)nc(N2CC([C@H]3CCCN(C4CC(C)(C(=O)O)C4)C3)C2)n1)c1ccc(Cl)cc1Cl (single isomer, unassigned) [Example 80] | 
< 100 nM |  | C[C@@H](Nc1nc(N2CC([C@H]3CCCN(C4CC(C)(C(=O)O)C4)C3)C2)nc2cc[nH]c12)c1ccc(Cl)cc1Cl (single isomer, unassigned) [Example 72, trifluoroacetic acid] | 
< 100 nM |  | C[C@@H](Nc1nc(N2CC([C@H]3CCCN(C4CC(C)(C(=O)O)C4)C3)C2)nc2[nH]ccc12)c1ccc(Cl)cc1Cl (single isomer, unassigned) [Example 75, trifluoroacetic acid] | 
 | > 500 nM | C[C@]1(C(=O)O)C[C@H](N2CCC[C@H](C3CN(c4ncc(Cl)c(NCc5ccc(Cl)cc5Cl)n4)C3)C2)C1 [Example 21, (1R,3r)-3-((R)-3-(1-(5-chloro-4-((2,4-dichlorobenzyl)amino)pyrimidin-2-yl)azetidin-3-yl)piperidin-1-yl)-1-methylcyclobutane-1-carboxylic acid] | 
 | < 100 nM | C[C@@H](Nc1nc(N2CC([C@H]3CCCN([C@H]4C[C@@](C)(C(=O)O)C4)C3)C2)ncc1Cl)c1ccc(Cl)cc1Cl [Example 40, (1S,3s)-3-((R)-3-(1-(5-chloro-4-(((R)-1-(2,4-dichlorophenyl)ethyl)amino)pyrimidin-2-yl)azetidin-3-yl)piperidin-1-yl)-1-methylcyclobutane-1-carboxylic acid] | 
 |  | C[C@@H](Nc1cnc(C#N)c(N2CC([C@H]3CCCN(CCC(=O)O)C3)C2)n1)c1ccc(Cl)cc1Cl [Example 53, 3-(3-(1-(3-cyano-6-(((R)-1-(2,4-dichlorophenyl)ethyl)amino)pyrazin-2-yl)azetidin-3-yl)piperidin-1-yl)propanoic acid] | IC50 (Table 4, CCL22 1.5 nM): > 500 nM
 | < 100 nM | C[C@@H](Nc1nc(N2CC([C@H]3CCCN([C@H]4C[C@](C)(C(=O)O)C4)C3)C2)ncc1C1CC1)c1ccc(Cl)cc1Cl [Example 41, (1R,3r)-3-((R)-3-(1-(5-cyclopropyl-4-(((R)-1-(2,4-dichlorophenyl)ethyl)amino)pyrimidin-2-yl)azetidin-3-yl)piperidin-1-yl)-1-methylcyclobutane-1-carboxylic acid] | 
< 100 nM |  | C[C@@H](Nc1nc(N2CC([C@H]3CCCN([C@H]4C[C@@H](C(=O)O)C4)C3)C2)nc2ccc(F)cc12)c1ccc(Cl)cc1Cl [Example 66, 3-[(1S,3R)-3-[1-[4-[[(1R)-1-(2,4-dichlorophenyl)ethyl]amino]-6-fluoro-quinazolin-2-yl]azetidin-3-yl]-1-piperidyl]cyclobutanecarboxylic acid; 2,2,2-trifluoroacetic acid] | 
 | < 100 nM | Cc1cnc(N2CC([C@H]3CCCN(CCN4CCCC4=O)C3)C2)nc1N[C@H](C)c1ccc(Cl)cc1Cl [Example 16, 1-(2-((R)-3-(1-(4-(((R)-1-(2,4-dichlorophenyl)ethyl)amino)-5-methylpyrimidin-2-yl)azetidin-3-yl)piperidin-1-yl)ethyl)pyrrolidin-2-one] | 
< 100 nM |  | C[C@@H](Nc1nc(N2CC(C3CCCN([C@H]4C[C@@H](O)C4)C3C(=O)O)C2)ncc1Cl)c1ccc(Cl)cc1Cl (stereo partly drawn) [Example 87, 3-[1-[5-chloro-4-[[(1R)-1-(2,4-dichlorophenyl)ethyl]amino]pyrimidin-2-yl]azetidin-3-yl]-1-(3-hydroxycyclobutyl)piperidine-2-carboxylic acid; 2,2,2-trifluoroacetic acid] | 
 | < 100 nM | C[C@@H](Nc1nc(N2CC([C@H]3CCCN([C@H]4C[C@](C)(C(=O)O)C4)C3)C2)ncc1C(C)(C)O)c1ccc(Cl)cc1Cl [Example 35, (1R,3r)-3-((R)-3-(1-(4-(((R)-1-(2,4-dichlorophenyl)ethyl)amino)-5-(2-hydroxypropan-2-yl)pyrimidin-2-yl)azetidin-3-yl)piperidin-1-yl)-1-methylcyclobutane-1-carboxylic acid] | 

Source: US12098139B2, “Chemokine receptor modulators and uses thereof” (RAPT Therapeutics, Inc., priority 2018, dated 2024)
